Like-named read-outs stand apart in the source and are kept apart here.
Assays:
[1] = system: stem borer; test: Field trial of the combination on stem borer in paddy, % mortality; assay type: in vivo
Procedure: Trials were conducted to test the efficacy of the combination of Chlorantraniliprole+Dinotefuran+Pymetrozine on stem borer in paddy: […]

[2] = assay type: in vivo; settings: paddy
[3] = system: white ears in paddy; test: Field trial on white ears in paddy, number of white ears per plot; assay type: in vivo

## CNC(=N[N+](=O)[O-])NCC1CCOC1 (racemic) [Dinotefuran, (EZ)—(RS)-1-methyl-2-nitro-3-(tetrahydro-3-furylmethyl)guanidine]
[1]; dose 40 gm. ai/ha
  % mortality 3 DAA: 65%
  % mortality 7 DAA: 75%
  % mortality 10 DAA: 75%
  % mortality 14 DAA: 70%
[2]; dose 40 gm. ai/ha
  Yield: 3500
[3]; dose 40 gm. ai/ha
  Number of white ears per plot 7 DAA: 11
  Number of white ears per plot 14 DAA: 19
  Number of white ears per plot 21 DAA: 41

## CNC(=O)c1cc(Cl)cc(C)c1NC(=O)c1cc(Br)nn1-c1ncccc1Cl [Chlorantraniliprole, 3-bromo-4′-chloro-1-(3-chloro-2-pyridyl)-2′-methyl-6′-(methylcarbamoyl)pyrazole-5-carboxanilide]
[1]; dose 30 gm. ai/ha
  % mortality 3 DAA: 3%
  % mortality 7 DAA: 7%
  % mortality 10 DAA: 7.9%
  % mortality 14 DAA: 6.9%
[2]; dose 30 gm. ai/ha
  Yield: 4322
[3]; dose 30 gm. ai/ha
  Number of white ears per plot 7 DAA: 5
  Number of white ears per plot 14 DAA: 7
  Number of white ears per plot 21 DAA: 14

## CC1=NNC(=O)N(/N=C/c2cccnc2)C1 [Pymetrozine]
[1]; dose 150 gm. ai/ha
  % mortality 3 DAA: 75%
  % mortality 7 DAA: 88%
  % mortality 10 DAA: 89%
  % mortality 14 DAA: 79%
[2]; dose 150 gm. ai/ha
  Yield: 3600
[3]; dose 150 gm. ai/ha
  Number of white ears per plot 7 DAA: 12
  Number of white ears per plot 14 DAA: 22
  Number of white ears per plot 21 DAA: 43

— patent US20210267207A1, “NOVEL AGROCHEMICAL COMBINATIONS” (priority 2018, published 2021)
